# In patent JPH0240324A, “キサントシリンxモノメチルエーテルを含有する駆虫剤” (Meiji Seika Kaisha Ltd, priority 1988, dated 1990):
# Tested on: chicken roundworm [鶏回虫(^5earidia galli)]
# Assay: Anthelmintic test: single oral dose to chickens infected with chicken roundworm; worm expulsion rate over 7 days
# Type: in vivo, chicken roundworm (^5earidia galli)
# Details: for worm expulsion rate (mean): single oral dose (gelatin capsule), n = 3, 7 days, untreated control 0%
smiles,measurement,setting,value
"[C-]#[N+]C(=Cc1ccc(O)cc1)C(=Cc1ccc(OC)cc1)[N+]#[C-] [キサントシリンXモノメチルエーテル, 1(p−ヒドロキシフェニル)−2、3−ジイソシフノー4−(p−メトキシフェニル)−ブタ−1,3−ツエン]",worm expulsion rate (mean),5 mg/kg,8%
same,worm expulsion rate (mean),10 mg/kg,69.7%
same,worm expulsion rate (mean),"20 mg/kg, completely expelled",100%
same,anthelmintic effect,"doses of 10 mg/kg to 20 mg/kg, single oral dose",確実な駆虫効果が確認された
same,time after dosing within which most worms were expelled,"most of the medicated groups, single oral dose 5-20 mg/kg",≤ 2 days
